The values that follow come from patent publication US20230183678A1, “IN-CELL CONTINUOUS TARGET-GENE EVOLUTION, SCREENING AND SELECTION” (COMMISSARIAT À L'ENERGIE ATOMIQUE ET AUX ENERGIES …, priority 2020, published 2023).

The target in one assay is T1, PDZ (Homo sapiens, UniProt P78352).
T1 construct: expressed in transfected cells; host or cells: E. coli BL21(DE3) Star or Acella, plasmid VN419
To be noted: cI-PDZ/rpoA-CRIPT pair; read-out: affinity; cited from earlier work.

Assay [1] has as its target T2, rpoA-stop (premature stop codon resulting in no fusion peptide) (UniProt P0A7Z4 1-248, limits assumed).
T2 construct: also called VN376
Briefly: bacterial two-hybrid coupled to Bxb1 DNA invertase; sequencing of colonies showed no inversion.

T2 sequence (P0A7Z4 1-248 limits assumed): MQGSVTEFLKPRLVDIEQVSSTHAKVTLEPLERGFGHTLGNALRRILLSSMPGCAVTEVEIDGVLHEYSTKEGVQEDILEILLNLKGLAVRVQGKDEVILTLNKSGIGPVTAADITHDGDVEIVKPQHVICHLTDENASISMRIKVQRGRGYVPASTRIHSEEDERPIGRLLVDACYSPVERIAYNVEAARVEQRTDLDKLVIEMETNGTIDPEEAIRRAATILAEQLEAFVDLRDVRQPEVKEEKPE

In the case of CRIPT [rpoA-CRIPT], the Kd at PDZ is 800 nM.

B1: cI-PDZ (DBD-target fusion) (other)
chain: MSTKKKPLTQEQLEDARRLKAIYEKKKNELGLSQESVADKMGMGQSGVGALFNGINALNAYNAALLAKILKVSVEEFSPSIAREIYEMYEAVSMQPSLRSEYEYPVFSHVQAGMFSPELRTFTKGDAERWVSTTKKASDSAFWLEVEGNSMTAPTGSKPSFPDGMLILVDPEQAVEPGDFCIARLGGDEFTFKKLIRDSGQVFLQPLNPQYPMIPCNESCSVVGKVIASQWPEETFGAAALGEEDIPREPRRIVIHRGSTGLGFNIVGGEDGEGIFISFILAGGPADLSGELRKGDQILSVNGVDLRNASHEQAAIALKNAGQTVTIIAQYKPEEYSRFEAK
notes: Expressed in E. coli BL21(DE3) Star or Acella cells from plasmid VN419
Consider B1, for which the binding result in assay [1] is on record as “no binding”.
